Where two headings read alike, the source gives them in different places. Where a SMILES comes first, the peptide text is derived from it. Bridges are numbered along the chain shown (N, C = ends). [ ]: non-standard residue; d: D form. The star is where a group is joined. d(aIle) = CC[C@H](C)[C@@H](N)C(=O)O; d(aThr) = C[C@@H](O)[C@@H](N)C(=O)O; Hexanoyl(5-Me) = CC(C)CCCC(=O)*; Orn = NCCC[C@H](N)C(=O)O; Dhb = C/C=C(\N)C(=O)O
Assays:
Type in all cases: cell-based, human
[1] = system: SK-BR-3; assay: SRB colorimetric assay of cell growth and viability, SK-BR-3; conditions: 48 hours exposure
[2] = system: LoVo; assay: SRB colorimetric assay of cell growth and viability, LoVo; conditions: 48 hours exposure; for CC50: read-out: LC50 LOVO
[3] = system: IGROV-1; assay: SRB colorimetric assay of cell growth and viability, IGROV-1; conditions: 48 hours exposure
[4] = system: K-562; assay: SRB colorimetric assay of cell growth and viability, K-562; conditions: 48 hours exposure; for CC50: read-out: LC50 K-562
[5] = system: A-549; assay: SRB colorimetric assay of cell growth and viability, A-549; conditions: 48 hours exposure; for GI50: read-out: GI50 A-549; for CC50: read-out: LC50 A-549
[6] = system: HT-29; assay: SRB colorimetric assay of cell growth and viability, HT-29; conditions: 48 hours exposure; for GI50: read-out: GI50 HT-29; for CC50: read-out: LC50 HT-29
[7] = system: IGROV-ET; assay: SRB colorimetric assay of cell growth and viability, IGROV-ET; conditions: 48 hours exposure; for CC50: read-out: LC50 IGROV-ET
[8] = system: HeLa-APL; assay: SRB colorimetric assay of cell growth and viability, HeLa-APL; conditions: 48 hours exposure; for CC50: read-out: LC50 HELA-APL
[9] = system: PANC-1; assay: SRB colorimetric assay of cell growth and viability, PANC-1; conditions: 48 hours exposure; for CC50: read-out: LC50 PANC-1
[10] = system: SK-MEL-28; assay: SRB colorimetric assay of cell growth and viability, SK-MEL-28; conditions: 48 hours exposure; for CC50: read-out: LC50 MEL-28
[11] = system: LoVo-Dox; assay: SRB colorimetric assay of cell growth and viability, LoVo-Dox; conditions: 48 hours exposure; for CC50: read-out: LC50 LOVO-DOX
In short: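 Cells in RPMI 1640 with 10% FBS were seeded at 5×10^3 per well and left 18 hours drug-free before compounds (10 to 10^−8 μg/mL in DMSO:EtOH:PBS 0.5:0.5:99) were added for 48 hours. TCA-fixed cells were stained with SRB and read at 490 nm; triplicate wells gave GI, TGI and LC.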

[12] = system: DU-145; assay: SRB colorimetric assay of cell growth and viability, DU-145; conditions: 48 hours exposure
[13] = system: LNCaP; assay: SRB colorimetric assay of cell growth and viability, LNCaP; conditions: 48 hours exposure; for GI50: read-out: GI50 LN-caP; for CC50: read-out: LC50 LN-caP
[14] = system: HeLa; assay: SRB colorimetric assay of cell growth and viability, HeLa; conditions: 48 hours exposure; for CC50: read-out: LC50 HELA

C/C=C1\NC(=O)[C@H](Cc2ccccc2)NC(=O)[C@@H](C(C)C)NC(=O)[C@@H]([C@@H](C)CC)NC(=O)[C@H](NC(=O)[C@H](NC(=O)[C@H](CCCN)NC(=O)[C@H]2CCCN2C(=O)[C@H](NC(=O)[C@@H](NC(=O)[C@@H](NC(=O)[C@H](NC(=O)CCCC(C)C)C(C)C)[C@@H](C)O)C(C)C)C(C)C)[C@@H](C)CC)[C@H](C)OC(=O)[C@H](C(C)C)NC1=O [Compound 2, [D-Thr^6]-KF]
GI50 [1]: 4.47 µM
LC50 [1]: ≥ 6.77 µM
TGI SK-BR-3 [1]: 6.77E−06 Molar
GI50 [2]: ≥ 6.77 µM
TGI LOVO [2]: 6.77E−06 Molar
CC50 [2]: ≥ 6.77 µM
GI50 [3]: 1.99 µM
LC50 (concentration causing 50% net cell killing) [3]: ≥ 6.77 µM
TGI IGROV [3]: 5.33E−06 Molar
GI50 [4]: ≥ 6.77 µM
TGI K-562 [4]: 6.77E−06 Molar
CC50 [4]: ≥ 6.77 µM
TGI A-549 [5]: 6.77E−06 Molar
GI50 [5]: ≥ 6.77 µM
CC50 [5]: ≥ 6.77 µM
TGI HT-29 [6]: 6.77E−06 Molar
GI50 [6]: ≥ 6.77 µM
CC50 [6]: ≥ 6.77 µM
GI50 [7]: 1.6 µM
TGI IGROV-ET [7]: 3.80E−06 Molar
CC50 [7]: ≥ 6.77 µM
GI50 [8]: ≥ 6.77 µM
TGI HELA-APL [8]: 6.77E−06 Molar
CC50 [8]: ≥ 6.77 µM
GI50 [9]: ≥ 6.77 µM
TGI PANC-1 [9]: 6.77E−06 Molar
CC50 [9]: ≥ 6.77 µM
GI50 [10]: ≥ 6.77 µM
TGI MEL-28 [10]: 6.77E−06 Molar
CC50 [10]: ≥ 6.77 µM
GI50 [11]: 3.06 µM
TGI LOVO-DOX [11]: 6.77E−06 Molar
CC50 [11]: ≥ 6.77 µM
GI50 [12]: 5.29 µM
LC50 (concentration causing 50% net cell kill) [12]: ≥ 6.77 µM
TGI DU-145 [12]: 6.77E−06 Molar
TGI LN-caP [13]: 6.77E−06 Molar
GI50 [13]: 2.13 µM
CC50 [13]: ≥ 6.77 µM
GI50 [14]: ≥ 6.77 µM
TGI HELA [14]: 6.77E−06 Molar
CC50 [14]: ≥ 6.77 µM

C/C=C1\NC(=O)[C@H](Cc2ccccc2)NC(=O)[C@@H](C(C)C)NC(=O)[C@@H]([C@@H](C)CC)NC(=O)[C@H](NC(=O)[C@H](NC(=O)[C@H](CCCN)NC(=O)[C@H]2CCCN2C(=O)[C@H](NC(=O)[C@@H](NC(=O)[C@@H](NC(=O)[C@H](NC(=O)CCCC(C)C)C(C)C)[C@@H](C)O)[C@@H](C)O)C(C)C)[C@@H](C)CC)[C@@H](C)OC(=O)[C@H](C(C)C)NC1=O [Compound 50, [Thr^11]-KF] ({Hexanoyl(5-Me)}-[dV]TT[dV][dP][Orn][d(aIle)][d(aThr)][d(aIle)][dV]F[Dhb]V; ester 8-C)
GI50 [1]: 0.899 µM
LC50 [1]: ≥ 6.76 µM
TGI SK-BR-3 [1]: 2.58E−06 Molar
GI50 [2]: 1.21 µM
TGI LOVO [2]: 2.80E−06 Molar
CC50 [2]: 6.47 µM
GI50 [3]: 3.76 µM
LC50 (concentration causing 50% net cell killing) [3]: ≥ 6.76 µM
TGI IGROV [3]: 6.76E−06 Molar
GI50 [4]: ≥ 6.76 µM
TGI K-562 [4]: 6.76E−06 Molar
CC50 [4]: ≥ 6.76 µM
TGI A-549 [5]: 6.76E−06 Molar
GI50 [5]: ≥ 6.76 µM
CC50 [5]: ≥ 6.76 µM
TGI HT-29 [6]: 6.76E−06 Molar
GI50 [6]: 3.76 µM
CC50 [6]: ≥ 6.76 µM
GI50 [7]: 2.7 µM
TGI IGROV-ET [7]: 6.76E−06 Molar
CC50 [7]: ≥ 6.76 µM
GI50 [8]: ≥ 6.76 µM
TGI HELA-APL [8]: 6.76E−06 Molar
CC50 [8]: ≥ 6.76 µM
GI50 [9]: 4.16 µM
TGI PANC-1 [9]: 6.76E−06 Molar
CC50 [9]: ≥ 6.76 µM
GI50 [10]: ≥ 6.76 µM
TGI MEL-28 [10]: 6.76E−06 Molar
CC50 [10]: ≥ 6.76 µM
GI50 [11]: 1.27 µM
TGI LOVO-DOX [11]: 2.54E−06 Molar
CC50 [11]: 5.1 µM
GI50 [12]: ≥ 6.7 µM
LC50 (concentration causing 50% net cell kill) [12]: ≥ 6.76 µM
TGI DU-145 [12]: 6.76E−06 Molar
TGI LN-caP [13]: 6.76E−06 Molar
GI50 [13]: ≥ 6.76 µM
CC50 [13]: ≥ 6.76 µM
GI50 [14]: 5.58 µM
TGI HELA [14]: 6.76E−06 Molar
CC50 [14]: ≥ 6.76 µM

C/C=C1\NC(=O)[C@H](Cc2ccccc2)NC(=O)[C@@H](C(C)C)NC(=O)[C@@H]([C@@H](C)CC)NC(=O)[C@H](NC(=O)[C@H](NC(=O)[C@H](CCCN)NC(=O)[C@H]2CCCN2C(=O)[C@H](NC(=O)[C@@H](NC(=O)[C@H](CCC(N)=O)NC(=O)CCCC(C)C)C(C)C)C(C)C)[C@@H](C)CC)[C@@H](C)OC(=O)[C@H](C(C)C)NC1=O [Compound 58, [Gln^12, noD-Val^13]-KF] ({Hexanoyl(5-Me)}-QV[dV][dP][Orn][d(aIle)][d(aThr)][d(aIle)][dV]F[Dhb]V; ester 7-C)
GI50 [1]: ≥ 7.11 µM
LC50 [1]: ≥ 7.11 µM
TGI SK-BR-3 [1]: 7.11E−06 Molar
GI50 ([2]; SRB): ≥ 7.11 µM
TGI LOVO ([2]; SRB): 7.11E−06 Molar
CC50 ([2]; SRB): ≥ 7.11 µM
GI50 [3]: ≥ 7.11 µM
LC50 (concentration causing 50% net cell killing) [3]: ≥ 7.11 µM
TGI IGROV [3]: 7.11E−06 Molar
GI50 ([4]; SRB): ≥ 7.11 µM
TGI K-562 ([4]; SRB): 7.11E−06 Molar
CC50 ([4]; SRB): ≥ 7.11 µM
TGI A-549 ([5]; SRB): 7.11E−06 Molar
GI50 ([5]; SRB): ≥ 7.11 µM
CC50 ([5]; SRB): ≥ 7.11 µM
TGI HT-29 ([6]; SRB): 7.11E−06 Molar
GI50 ([6]; SRB): ≥ 7.11 µM
CC50 ([6]; SRB): ≥ 7.11 µM
GI50 [7]: ≥ 7.11 µM
TGI IGROV-ET [7]: 7.11E−06 Molar
CC50 [7]: ≥ 7.11 µM
GI50 ([8]; SRB): ≥ 7.11 µM
TGI HELA-APL ([8]; SRB): 7.11E−06 Molar
CC50 ([8]; SRB): ≥ 7.11 µM
GI50 ([9]; SRB): ≥ 7.11 µM
TGI PANC-1 ([9]; SRB): 7.11E−06 Molar
CC50 ([9]; SRB): ≥ 7.11 µM
GI50 [10]: ≥ 7.11 µM
TGI MEL-28 [10]: 7.11E−06 Molar
CC50 [10]: ≥ 7.11 µM
GI50 ([11]; SRB): ≥ 7.11 µM
TGI LOVO-DOX ([11]; SRB): 7.11E−06 Molar
CC50 ([11]; SRB): ≥ 7.11 µM
GI50 [12]: ≥ 7.11 µM
LC50 (concentration causing 50% net cell kill) [12]: ≥ 7.11 µM
TGI DU-145 [12]: 7.11E−06 Molar
TGI LN-caP [13]: 7.11E−06 Molar
GI50 [13]: ≥ 7.11 µM
CC50 [13]: ≥ 7.11 µM
GI50 ([14]; SRB): ≥ 7.11 µM
TGI HELA ([14]; SRB): 7.11E−06 Molar
CC50 ([14]; SRB): ≥ 7.11 µM

Source: patent US20070117743A1, “New antitumoral compounds” (priority 2003, published 2007)
